For experiment [1], the system named is Methicillin-sensitive S. aureus (MTCC 737). The experiment is described as follows: MIC, micro-dilution broth, MSSA. Particulars: MTCC 737; read-out: MIC MSSA. In kind it is cell-based. How it is done:
(§1) All test compounds were assayed in a micro-dilution broth format. Stock solutions were made by serially diluting the compounds using autoclaved millipore water or broth media. The antibacterial activity of the compounds was determined against methicillin-sensitive S. aureus (MSSA), methicillin-resistant S. aureus (MRSA), vancomycin-intermediate-resistant S. aureus (VISA), vancomycin-sensitive E. faecium (VSE) and vancomycin-resistant E. faecium (VRE). Bacteria, to be tested, were grown for about 10 h in the suitable media, MSSA, MRSA and VISA were grown in yeast-dextrose broth (about 1 g of beef extract, about 2 g of yeast extract, about 5 g of peptone and about 5 g of NaCl in about 1000 mL of sterile distilled water (pH-7)). For solid media, about 5% agar was used along with above mentioned composition. VSE and VRE were cultured in brain heart infusion broth (Himedia). The bacterial samples were freeze dried and stored at −80° C. About 5 μL of these stocks were added to about 3 mL of the nutrient broth and the culture was grown for about 6 h at about 37° C. prior to the experiments. This 6 h grown culture gives about 10^9 cfu/mL and this was determined by spread plating method. The 6 h grown culture was diluted to give effective cell concentration of about 10^5 cfu/mL which was then used for determining MIC. Compounds were serially diluted, in sterile water (2 fold dilution is employed) in a way that the working concentration was about 10 μM for MSSA, MRSA, and VSE while for VRE and VISA it was about 100 μM. About 50 μL of these serial dilutions were added to the wells of 96 well plate followed by the addition of about 150 μL of bacterial solution. The plates were then incubated at about 37° C., 150 rpm in the incubator and O.D at 600 nm was recorded at an interval of about 10 h and 24 h using TECAN (Infinite series, M200 pro) Plate Reader. Each concentration had triplicate values and the whole experiment was done at least twice and the MIC value was determined by taking the average of triplicate. O. D. values for each concentration and plotting it against concentration. The data was then subjected to sigmoidal fitting. From the curve the MIC value was determined, as the point in the curve where the O. D. was similar to that of control having no bacteria.
On the technique in general: In broth dilution the organism is exposed to a series of concentrations in liquid medium.

The subject of experiment [2] is Methicillin-resistant S. aureus (ATCC 33591). The experiment is described as follows: MIC, micro-dilution broth, MRSA. It counts as cell-based. As to conditions: ATCC 33591; read-out: MIC MRSA. How it is done: as §1
The test system of experiment [3] is Vancomycin intermediate resistant S. aureus. The experiment is described as follows: MIC, micro-dilution broth, VISA. As to conditions: read-out: MIC VISA. It counts as cell-based. The protocol: as §1
For experiment [4], the system named is Vancomycin-sensitive E. faecium (ATCC 19634). The experiment is described as follows: MIC, micro-dilution broth, VSE. It counts as cell-based. Particulars: ATCC 19634; read-out: MIC VSE. How it is done:
as §1

Experiment [5] deals with Vancomycin-resistant E. faecium (VanA, ATCC 51559). The experiment is described as follows: MIC, micro-dilution broth, VRE (VanA). It counts as cell-based. As to conditions: E. faecium ATCC 51559; read-out: MIC VRE (VanA). How it is done:
as §1

Experiment [6] deals with Vancomycin-resistant E. faecalis (VanA, ATCC 51575). The experiment is described as follows: MIC, micro-dilution broth, VRE (VanB). It counts as cell-based. Particulars: E. faecalis ATCC 51575; read-out: MIC VRE (VanB).
Experiment [7] deals with methicillin-resistant S. epidermidis clinical isolate. The experiment is described as follows: MIC, clinical isolate of methicillin-resistant S. epidermidis. In kind it is cell-based. As to conditions: clinical isolate, methicillin-resistant.
Experiment [8] concerns methicillin-resistant S. haemolyticus clinical isolate. The experiment is described as follows: MIC, clinical isolate of methicillin-resistant S. haemolyticus. In kind it is cell-based. As to conditions: clinical isolate, methicillin-resistant; read-out: MIC S. haemolyticus.
Experiment [9] deals with methicillin-resistant S. aureus clinical isolate. The experiment is described as follows: MIC, clinical isolate of methicillin-resistant S. aureus. Particulars: clinical isolate, methicillin-resistant. In kind it is cell-based. How it is done: as §1
For experiment [10], the system named is VISA. The experiment is described as follows: Ex-vivo whole blood assay. It counts as cell-based, S. aureus. As to conditions: 3 h incubation in 90% human whole blood. The protocol:
Ex-vivo whole blood assay was performed to compare the abilities of these compounds to retain activity in complex media. To 30 μL of VISA in saline (0.9% NaCl; 10^6 CFU/mL) 10 μL of test compounds (vancomycin and compound 7) and 270 μL of fresh human whole blood were added and incubated, at 37° C. for about 3 h. After the incubation period, antibacterial activity was determined by finding the bacterial titer in the infected blood.

The test system of experiment [11] is VISA. The experiment is described as follows: In-vivo time dependent whole blood assay. More on the design: species or system S. aureus. As to conditions: 12 mg/kg single i.v., CD-1 mice, VISA. The protocol:
The derivative 7 and vancomycin were administered in a single intravenous injection (0.2 mL saline) to normal pathogen-free, female CD-1 mice. Doses of 12 mg kg^−1 were administered to three mice per data point. At the specified time-points (0, 3, 6, 12, 24 and 48 h) mice were euthanized (using ether), blood samples were collected from the ocular puncture. 60 μL of VISA in saline (0.9% NaCl; 10^6 CFU/mL) was added to 540 μL of whole blood which was drawn from the mice and incubated at 37° C. for 3 h. After the incubation period, antibacterial activity was determined by finding the bacterial titer in the infected blood.

In experiment [12] the test system is methicillin-resistant vancomycin-intermediate S. aureus (MR-VISA). The experiment is described as follows: Time-kill assay. Particulars: 2 μM and 4 μM. It counts as cell-based. The protocol:
The bactericidal activity was assessed by the kinetics or the rate at which it affects the killing action of the compound. Briefly methicillin-resistant vancomycin-intermediate S. aureus (MR-VISA) grown in Yeast-Dextrose broth. A starting inoculum of 1.6×10^8 CFU/ml was used as initial bacterial colony count. Vancomycin and compound 7 having final concentrations of 2 μM and 4 μM were inoculated with MR-VISA suspensions having starting inocula of 1.6×10^8 CFU/ml. Bacterial suspension containing specified concentrations of the compound along with negative control (which contains only 0.9% Saline) was incubated at 37° C. with shaking. Aliquots (20 μl) were removed from the cultures at different time intervals and were serially diluted 10-fold in 0.9% saline and plated onto sterile Yeast-Dextrose agar medium. The number of viable cells was determined by plating the 10-fold serial dilution of each sample onto Yeast-dextrose agar medium. Plates were then incubated for 24 h at 37° C., CFU was counted and the total bacterial log 10 CFU/ml was determined.

The structures appear in SMILES notation. Converted amounts (≈) assume the structure as drawn. “Also recorded” adds a separate entry of the source.

The record followed here is patent US20160303184A1, “VANCOMYCIN-SUGAR CONJUGATES AND USES THEREOF” (JAWAHARLAL NEHRU CENTRE FOR ADVANCED SCIENTIFIC RESEARCH …, priority 2013, published 2016).

As usually defined, the MIC is the smallest concentration in the dilution series that meets the test's criterion for growth inhibition. Regarding `CN[C@H](CC(C)C)C(=O)N[C@H]1C(=O)N[C@@H](CC(N)=O)C(=O)N[C@H]2C(=O)N[C@H]3C(=O)N[C@H](C(=O)N[C@H](C(=O)O)c4cc(O)cc(O)c4-c4cc3ccc4O)[C@H](O)c3ccc(c(Cl)c3)Oc3cc2cc(c3O[C@@H]2O[C@H](CO)[C@@H](O)[C@H](O)[C@H]2O[C@H]2C[C@](C)(N)[C@H](O)[C@H](C)O2)Oc2ccc(cc2Cl)[C@H]1O` [Vancomycin], the MIC in experiment [1] was 0.63 µM (≈ 0.913 µg/mL); in [2] it was 0.63 µM (≈ 0.913 µg/mL); in [3], 13.0 µM (≈ 18.8 µg/mL); in experiment [4], 0.6 µM (≈ 0.87 µg/mL); in [5], more than 700 µM; in experiment [6], 250 µM (≈ 362 µg/mL). Moreover, the MIC in experiment [8] is reported as 1.4 µM (≈ 2.03 µg/mL). The “MIC S. epidermidis” value in experiment [7] was 0.9 µM (≈ 1.3 µg/mL). In addition, in [9], the “MIC S. aureus” value worked out at 0.7 µM (≈ 1.01 µg/mL). The “bactericidal activity in whole blood” value in the experiment on VISA [10] is listed as “slow killing”. In addition, the “antibacterial activity of blood drawn at 3 h” value in the experiment with VISA [11] was “did not show any activity; also recorded: nominal activity”. Moreover, in the experiment with VISA [11], the “antibacterial activity of blood drawn at 6 h” value was “did not show any activity”. The killing kinetics entry in [12] is on record as “relatively slow killing or bacteriostatic effect”.
